Measurements published in US6046228A, “Anti-viral pharmaceutical compositions containing saturated 1,2-dithiaheterocyclic compounds and uses thereof” (priority 1999, dated 2000).

Assays:
HIV-1 6R(AZT^R) = experiment: XTT cytopathicity assay, AZT-resistant 6R; type: cell-based; settings: MT-4, 6R(AZT^R)
Method: (§1) Initial anti-HIV screening was performed with CEM-SS cells and HIV-1RFusing the XTT cytoprotection assay as previously described (Weislow et al., J. National Cancer Inst. 81: 577-586, (1989)). HIV-1 isolates included common laboratory stains (RF, IIIB and MN), as well as a panel of HIV-1 clinical isolates (Cushman et al., J. Med. Chem. 37: 3040-3050, (1994)). The pyridone-resistant HIV-1A17 isolate (Nunberg et al., J. Virol., 65: 4887-4892 (1991)) was obtained from Emilio Emini at Merck Sharpe and Dohme Laboratories. Phytohemagglutinin-stimulated human peripheral blood lymphocytes (PBLs) and fresh monocyte-macrophage (Mono/MF) cultures were prepared and utilized in antiviral assays as previously described (Rice et al., Proc. Nat'l. Academy Science, USA 90: 9721-9724, (1993)); (Cushman et al., J. Med. Chem. 37: 3040-3050, (1994)). EC50 values for these cultures indicate the drug concentration that provided a 50% reduction in viral p24 production. […] The compounds can be synthesized according to the teachings of Singh et al., Sulfur Letters 8: 107-114, (1988). The 4,5-cis-dihydroxy(1,1-dioxy-1,2,-dithiohexane) compound (NSC 624151) has been abbreviated as 624151 for convenience. […]

Pr55^gag = experiment: immunoblot of viral proteins in U1 cells (Gag precursor processing); type: cell-based, HIV-1; settings: FIG. 3(B), in words
Method: (§2) U1 cells latently infected with two copies of HIV-1 proviral DNA per cell (Clous et al., J. Immunol. 142: 431-438, (1989)) were treated with 5 ng/ml tumor necrosis factor-α(TNF-α) for 24 hours to stimulate production of HIV-1 virions, after which various concentrations of 624151 were added to the cultures and incubated for an additional 48 hours. Cultures were analyzed for cell viability by the XTT reduction assay and cells were counted and scored for viability by trypan blue exclusion. Cells pellets were lysed (0.5% Triton X-100, 300 mM NaCl, 50 mM Tris-HCl, pH 7.6, 10 μg/ml each of Leupeptin and aprotinin (Boehringer Mannheim), 1.8 mg/ml iodoacetamide (Sigma Chemical Co., St. Louis, Mo.) and 1.0 mg/ml the protease inhibitor Pefabloc SC (Boehringer Mannheim at 4° C. for 15 min. and then quantitated for viral p24 content by ELISA. Cell-free supernatant samples were collected and analyzed for virus content by p24 ELISA, and infectivity in cultures of 174xCEM cells. Briefly, serial 1/2 dilutions of the supernatant were placed with 5×10^3 174xCEM cells and cultured for 7 days, cell supernatants were analyzed for viral p24 content, and the number of infectious units/ml calculated. In addition, cell free supernatants were centrifuged at 17,000×g for 1 hour at 4° C. to collect virion pellets. […]

HIV-1 VIHU(NSI) = experiment: antiviral assay in PBL (p24), clinical isolate VIHU; type: cell-based; settings: Human immunodeficiency virus 1, cell-free p24
Method: as §1

HIV-1 SK1 = experiment: XTT cytopathicity assay, SK1; type: cell-based; settings: Human immunodeficiency virus 1, CEM-SS
Method: as §1

U1 cells = experiment: U1 cell viability (XTT) and cell number; type: cell-based; settings: TNF-α stimulated U1 cells, 48 hours, FIG. 3(A)
Method: as §2

O=S1(=O)C[C@H](O)[C@H](O)CS1 (relative stereo) [NSC 624151, cis-1,1-dioxo[1,2]dithiane-4,5-diol]
EC50 (HIV-1 6R(AZT^R)): 7.2 µM
Pr55^gag processing to p41, p24, p9 and p7 proteins (Pr55^gag): prevents processing of precursor proteins to mature viral proteins
Pr55^gag processing to p41, p24, p9 and p7 proteins (Pr55^gag; listed as 624151): decrease in Pr55^gag processing to the p41, p24, p9 and p7 proteins
EC50 (HIV-1 VIHU(NSI)): 12 µM
EC50 (HIV-1 SK1): 22.7 µM
cell viability (XTT) or cell number (U1 cells): did not significantly reduce cell viability (XTT) or cell number
